Reference: patent US20170008921A1, “C-3 NOVEL TRITERPENONE WITH C-28 REVERSE AMIDE DERIVATIVES AS HIV INHIBITORS” (HETERO RESEARCH FOUNDATION, priority 2015, published 2017)
Like-named read-outs stand apart in the source and are kept apart here.

What was measured:
cells = assay: Cyto-toxicity (MTT assay); type: cell-based
HIV-1 strain 92HT599 = assay: Antiviral activity against HIV-1 strain 92HT599 in MT2 cells (p24 estimation); type: cell-based; settings: HIV-1 92HT599, ~96 hours
Method: MT2 cells were infected with HIV-1 strain 92HT599 (10 TCID 50/30000 cells). The infected cells were plated at the concentration of ˜30,000 cells per well in 96 well plate. Test compound was added to the micro plate in defined format with the final concentration of DMSO (vehicle) is not more than 1%. Incubation was carried out in CO2 incubator for ˜96 hours for viral infection. At the end of incubation period an aliquot from each well was taken for p24 estimation. The quantitation of p24 is an index for antiviral activity of the compound. Percent inhibition was calculated with reference to control values (vehicle controls). p24 estimation was carried out using Advance biosciences kit as per the procedure detailed by supplier.

[1] = Single dose oral pharmacokinetic study; type: in vivo; settings: Mice oral PK @30 mg/kg, plasma, vehicle 10% Solutol+20% PEG
Outline: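 Rats or mice dosed orally at 30 mg/kg in 10% Solutol+20% PEG. Acetonitrile precipitation, then LC-MS/MS quantification for PK parameters.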

pNL4-3 WT = assay: Antiviral activity against pNL4-3 WT strain in MT4 cells (p24 estimation); type: cell-based, HIV-1; settings: 4 days
Method: (§1) MT4 cells were Transfected with HIV-1 Plasmid (pNL4-3-WT & V7A) (Cells were incubating with required number of TCID50 of HIV-1 for 1.5 h at 37° C.). After infection, the infected cells were plated at the concentration of 3×10^4 cells per well in 96 well plate. Test compound was added to the test plate in defined format with the final concentration of DMSO is not more than 1%. Incubation was carried out in CO2 incubator for 4 days for viral infection. At the end of incubation period an aliquot from each well was taken for p24 estimation. p24 estimation was carried out using Advance biosciences kit as per the procedure detailed by supplier.

pNL4-3 V7A = assay: Antiviral activity against pNL4-3 V7A strain in MT4 cells (p24 estimation); type: cell-based, HIV-1; settings: 4 days
Method: as §1

[2] = Cyto-toxicity (MTT assay); type: cell-based
[3] = 0% serum binding assay, read-out: IC50 0% serum
[4] = 40% serum binding assay, read-out: IC50 40% serum

| SMILES | IC50 (HIV-1 strain 92HT599; [3]) [nM] | IC50 (HIV-1 strain 92HT599; [4]) [nM] | viability at 4 days, 0.01 µM [2] [%] | AUC(0-t) ([1]; mouse, read-out: AUC0-t) [µg·h/mL] | Cmax ([1]; mouse, read-out: Cmax) [ng/mL] | viability at 4 days, 0.1 µM [2] [%] | viability at 4 days, 1 µM [2] [%] | also measured |
| --- | --- | --- | --- | --- | --- | --- | --- | --- |
| CC(C)C1=C2[C@H]3CC[C@@H]4[C@@]5(C)CC[C@H](OC(=O)[C@H]6C[C@@H](C(=O)O)C6(C)C)C(C)(C)[C@@H]5CC[C@@]4(C)[C@]3(C)CC[C@@]2(NC(=O)C(C)(C)N)CC1=O.Cl [Example 74, (1R,3S)-3-((((3aR,5aR,5bR,7aR,9S,11aR,11bR,13aS)-3a-(2-amino-2-methylpropanamido)-1-isopropyl-5a,5b,8,8,11a-pentamethyl-2-oxo-3,3a,4,5,5a,5b, 6,7,7a,8,9,10,1111a,11b,12,13,13a-octadecahydro-2H-cyclopenta[a]chrysen-9-yl)oxy)carbonyl)-2,2-dimethylcyclobutane-1-carboxylic acid hydrochloride] | < 3 | < 50 |  |  |  |  |  | Cytotoxicity % viability (cells; 0.01 µM): 61%; Cytotoxicity % viability (cells; 0.1 µM): 14%; Cytotoxicity % viability (cells; 1 µM): 19% |
| CC(C)C1=C2[C@H]3CC[C@@H]4[C@@]5(C)CC[C@H](OC(=O)[C@H]6C[C@@H](C(=O)O)C6(C)C)C(C)(C)[C@@H]5CC[C@@]4(C)[C@]3(C)CC[C@@]2(NC(=O)C(C)(C)NC(=O)[C@@H]2CCCN2)CC1=O.Cl [Example 76, (1R,3S)-3-((((3aR,5aR,5bR,7aR,9S,11aR,11bR,13aS)-1-isopropyl-5a,5b,8,8,11a-pentamethyl-3a-(2-methyl-2-((S)-pyrrolidine-2-carboxamido)propanamido)-2-oxo-3,3a,4,5,5a,5b,6,77a,8,9,10,11,11a,11b,12,13,13a-octadecahydro-2H-cyclopenta[a]chrysen-9-yl)oxy)carbonyl)-2,2-dimethylcyclobutane-1-carboxylic acid hydrochloride] | < 3 | 50 to 200 |  |  |  |  |  | Cytotoxicity % viability (cells; 0.01 µM): 59%; Cytotoxicity % viability (cells; 0.1 µM): 6%; Cytotoxicity % viability (cells; 1 µM): 6% |
| CC(C)C1=C2[C@H]3CC[C@@H]4[C@@]5(C)CC[C@H](OC(=O)[C@H]6C[C@@H](C(=O)O)C6(C)C)C(C)(C)[C@@H]5CC[C@@]4(C)[C@]3(C)CC[C@@]2(NC(=O)C(C)(C)NS(=O)(=O)c2ccc(Cl)cc2)CC1=O [Example 65, (1R,3S)-3-((((3aR,5aR,5bR,7aR,9S,11aR,11bR,13aS)-3a-(2-((4-chlorophenyl)sulfonamido)-2-methylpropanamido)-1-isopropyl-5a,5b,8,8,11a-pentamethyl-2-oxo-3,3a,4,5,5a,5b,6,7,7a,8,91,111,11a,11b,12,13,13a-octadecahydro-2H-cyclopenta[a]chrysen-9-yl)oxy)carbonyl)-2,2-dimethylcyclobutane-1-carboxylic acid] | < 3 | < 50 |  |  |  |  |  | Cytotoxicity % viability (cells; 0.01 μM, MTT, 4 days (Table 3)): 27%; Cytotoxicity % viability (cells; 0.1 μM, MTT, 4 days (Table 3)): 3%; Cytotoxicity % viability (cells; 1 μM, MTT, 4 days (Table 3)): 2%; AUC(0-t) [1]: 145.21 µg·h/mL; Cmax [1]: 7383 ng/mL; IC50 (pNL4-3 WT): > 10 nM; IC50 (pNL4-3 V7A): > 50 nM |
| CC(C)C1=C2[C@H]3CC[C@@H]4[C@@]5(C)CC[C@H](OC(=O)[C@H]6C[C@@H](C(=O)O)C6(C)C)C(C)(C)[C@@H]5CC[C@@]4(C)[C@]3(C)CC[C@@]2(NC(=O)C(C)(C)NC(=O)c2cccnc2N2CCOCC2)CC1=O [Example 31, (1R,3S)-3-((((3aR,5aR,5bR,7aR,9S,11aR,11bR,13aS)-1-isopropyl-5a,5b,8,8,11a-pentamethyl-3a-(2-methyl-2-(2-morpholinonicotinamido)propan amido)-2-oxo-3,3a,4,5,5a,5b,6,7,7a,8,9,10,11,11a,11b,12,13,13a-octadecahydro-2H-cyclopenta[a]chrysen-9-yl)oxy)carbonyl)-2,2-dimethylcyclobutane-1-carboxylic acid] |  |  | 54 | 255 | 18700 |  |  | viability at 4 days, 0.001 µM [2]: 81%; viability at 4 days, 0.003 µM [2]: 86% |
| CC(C)C1=C2[C@H]3CC[C@@H]4[C@@]5(C)CC[C@H](OC(=O)[C@H]6C[C@@H](C(=O)O)C6(C)C)C(C)(C)[C@@H]5CC[C@@]4(C)[C@]3(C)CC[C@@]2(NC(=O)C(C)(C)NC(=O)CN(C)C)CC1=O [Example 59, (1R,3S)-3-((((3aR,5aR,5bR,7aR,9S,11aR,11bR,13aS)-3a-(2-(2-(dimethylamino)acetamido)-2-methylpropanamido)-1-isopropyl-5a,5b,8,8,11a-pentamethyl-2-oxo-3,3a,4,5,5a,5b,6,7,7a,8,9,10,11,11a,11b,12,13,13a-octadecahydro-2H-cyclopenta[a]chrysen-9-yl)oxy)carbonyl)-2,2-dimethylcyclobutane-1-carboxylic acid] |  |  | 94 | 186 | 13900 | 15 | 8 |  |
| CC(C)C1=C2[C@H]3CC[C@@H]4[C@@]5(C)CC[C@H](OC(=O)[C@H]6C[C@@H](C(=O)O)C6(C)C)C(C)(C)[C@@H]5CC[C@@]4(C)[C@]3(C)CC[C@@]2(NC(=O)C(C)(C)NC(=O)C2(c3ccc(Cl)cc3)CC2)CC1=O [Example 2, (1R,3S)-3-((((3aR,5aR,5bR,7aR,9S,11aR,11bR,13aS)-3a-(2-(1-(4-chlorophenyl)cyclopropane-1-carboxamido)-2-methylpropanamido)-1-isopropyl-5a,5b,8,8, 11a-pentamethyl-2-oxo-3,3a,4,5,5a,5b,6,7,7a,8,9,10,11,11a,11b,12,13,13a-octadecahydro-2H-cyclopenta[a]chrysen-9-yl)oxy)carbonyl)-2,2-dimethylcyclobutane-1-carboxylic acid] |  |  | 42 | 166 | 13200 | 9 | 8 |  |
| Cc1cccc(C(=O)NC(C)(C)C(=O)N[C@@]23CC[C@]4(C)[C@H](CC[C@@H]5[C@@]6(C)CC[C@H](OC(=O)[C@H]7C[C@@H](C(=O)O)C7(C)C)C(C)(C)[C@@H]6CC[C@]54C)C2=C(C(C)C)C(=O)C3)n1 [Example 60, (1R,3S)-3-((((3aR,5aR,5bR,7aR,9S,11aR,11bR,13aS)-1-isopropyl-5a,5b,8,8,11a-pentamethyl-3a-(2-methyl-2-(6-methylpicolinamido)propanamido)-2-oxo-3,3a,4,5,5a,5b,6,7,7a,8,9,10,11,11a,11b,12,13,13a-octadecahydro-2H-cyclopenta[a]chrysen-9-yl)oxy)carbonyl)-2,2-dimethylcyclobutane-1-carboxylic acid] |  |  | 77 | 217 | 20200 | 27 | 2 |  |
